Laboratory results taken from patent US20150315188A1, “COMPOUNDS AND METHODS FOR TREATMENT OF HYPERTENSION” (MEDIVATION TECHNOLOGIES, INC., priority 2012, published 2015).

Assays:
Design in all cases: purchased Milipore (Millipore)
[1] = biological target: T1, Human adrenergic α2B receptor (Homo sapiens, UniProt P18089); assay: Radioligand binding, adrenergic α2B (Protocol Group B); details: Protocol Group B; for Percentage inhibition of ligand binding, Adrenergic α2B (30 nM): 0.03 µM; for Percentage inhibition of ligand binding, Adrenergic α2B (10 nM): 0.01 µM
T1 sequence (P18089 1-450): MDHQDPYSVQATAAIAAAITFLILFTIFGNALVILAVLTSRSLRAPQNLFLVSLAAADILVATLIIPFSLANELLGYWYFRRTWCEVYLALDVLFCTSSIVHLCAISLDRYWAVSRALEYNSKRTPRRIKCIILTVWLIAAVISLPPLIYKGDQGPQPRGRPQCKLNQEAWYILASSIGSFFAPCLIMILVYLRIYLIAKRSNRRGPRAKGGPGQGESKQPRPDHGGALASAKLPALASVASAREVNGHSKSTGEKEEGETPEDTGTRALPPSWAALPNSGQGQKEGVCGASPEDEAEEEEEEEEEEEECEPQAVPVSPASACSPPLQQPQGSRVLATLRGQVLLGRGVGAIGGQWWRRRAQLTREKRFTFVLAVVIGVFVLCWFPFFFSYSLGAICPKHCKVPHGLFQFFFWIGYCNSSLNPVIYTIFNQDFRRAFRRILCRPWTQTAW
Protocol: To evaluate the activity of compounds in radioligand binding assays, Human adrenergic α2B receptor obtained from recombinant cell membrane from Milipore. Binding experiments were carried out in Tris-HCl buffer (50 mM Tris-HCl buffer, pH 7.4, 5 mM Mgcl2, 1 mM Cacl2, 0.2% BSA) as recommended by Milipore. […] Non-specific binding was estimated in the presence of 10 μM Rauwolscine. […] Compounds were screened at various concentrations, using 1% DMSO as vehicle. Biochemical assay results are presented as the percent Inhibition of specific binding in Table B1b, or estimated Ki values in Table B1c.

[2] = biological target: T2, Human adrenergic α1B receptor (Homo sapiens, UniProt P35368); assay: Radioligand binding, adrenergic α1B (Protocol Group B); details: Protocol Group B
T2 sequence (P35368 1-520): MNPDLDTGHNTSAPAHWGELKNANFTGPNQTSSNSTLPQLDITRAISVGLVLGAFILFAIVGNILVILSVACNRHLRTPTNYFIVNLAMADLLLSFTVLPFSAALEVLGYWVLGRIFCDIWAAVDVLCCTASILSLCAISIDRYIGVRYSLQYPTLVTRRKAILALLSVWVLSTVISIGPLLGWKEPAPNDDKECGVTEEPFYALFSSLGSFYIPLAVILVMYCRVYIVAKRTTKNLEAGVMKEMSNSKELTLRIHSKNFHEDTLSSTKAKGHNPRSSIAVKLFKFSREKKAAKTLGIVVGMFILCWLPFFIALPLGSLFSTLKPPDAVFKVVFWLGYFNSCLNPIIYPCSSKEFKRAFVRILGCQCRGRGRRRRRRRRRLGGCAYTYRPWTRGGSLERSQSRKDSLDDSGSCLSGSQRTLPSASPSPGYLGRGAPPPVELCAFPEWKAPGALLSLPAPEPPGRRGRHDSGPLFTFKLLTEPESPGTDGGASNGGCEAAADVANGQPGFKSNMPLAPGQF
Protocol: To evaluate the activity of compounds in radioligand binding assays, Human adrenergic α1B receptor obtained from recombinant cell membrane from Milipore. Binding experiments were carried out in Tris-HCl buffer (50 mM Tris-HCl buffer, pH 7.4, 10 mM Mgcl2, 1 mM EDTA) as recommended by Milipore. Compounds were incubated with 0.3 nM [^3H]Prazosin for 60 min at 25° C. Non-specific binding was estimated in the presence of 10 μM prazosin. Receptor proteins were harvested on 0.33% PEI(poly-ethylenemine) soaked GFC filter mat, the specifically bound [^3H]Prazosin were counted to determine total binding. Compounds were screened at various concentrations, using 1% DMSO as vehicle. percent inhibition of specific binding was determined. Biochemical assay results are presented as the percent Inhibition of specific binding in Table B1b, or estimated Ki values in Table B1c.

[3] = biological target: T3, Human adrenergic α2A receptor (Homo sapiens, UniProt P08913); assay: Radioligand binding, adrenergic α2A (Protocol Group B); details: Protocol Group B
T3 sequence (P08913 1-465): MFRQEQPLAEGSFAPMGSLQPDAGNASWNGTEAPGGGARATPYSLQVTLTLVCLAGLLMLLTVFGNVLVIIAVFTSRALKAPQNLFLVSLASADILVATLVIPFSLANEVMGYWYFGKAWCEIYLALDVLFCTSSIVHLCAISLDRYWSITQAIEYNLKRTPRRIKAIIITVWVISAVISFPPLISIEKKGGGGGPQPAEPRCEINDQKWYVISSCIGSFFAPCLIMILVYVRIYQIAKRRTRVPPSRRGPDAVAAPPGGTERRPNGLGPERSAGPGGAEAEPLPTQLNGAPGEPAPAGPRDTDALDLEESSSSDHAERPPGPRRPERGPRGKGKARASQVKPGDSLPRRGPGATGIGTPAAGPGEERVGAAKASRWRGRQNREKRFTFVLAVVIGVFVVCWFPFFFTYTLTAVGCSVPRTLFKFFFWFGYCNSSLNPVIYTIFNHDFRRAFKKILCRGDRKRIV
Protocol: To evaluate the activity of compounds in radioligand binding assays, Human adrenergic α2A receptor obtained from recombinant cell membrane from Milipore. Binding experiments were carried out in Tris-HCl buffer (50 mM Tris-HCl buffer, pH 7.4, 5 mM Mgcl2, 1 mM Cacl2, 0.2% BSA) as recommended by Milipore. Compounds were incubated with 2 nM [^3H]MK-912 for 60 min at 25° C. Non-specific binding was estimated in the presence of 10 μM Rauwolscine. Receptor proteins were harvested on 0.33% PEI(poly-ethylenemine) soaked GFC filter mat, the specifically bound [^3H]MK-912 were counted to determine total binding. Compounds were screened at various concentrations, using 1% DMSO as vehicle. percent inhibition of specific binding was determined. Biochemical assay results are presented as the percent Inhibition of specific binding in Table B1b, or estimated Ki values in Table B1c.

| Compound | Percentage inhibition of ligand binding, Adrenergic α2B (30 nM) ([1]; 30 nM compound) | Percentage inhibition of ligand binding, Adrenergic α1B (0.1 μM) ([2]; 0.1 μM compound) | Percentage inhibition of ligand binding, Adrenergic α2A (0.1 μM) ([3]; 0.1 μM compound) | Percentage inhibition of ligand binding, Adrenergic α2B (10 nM) ([1]; 10 nM compound) | Percentage inhibition of ligand binding, Adrenergic α2B (0.1 μM) ([1]; 0.1 μM compound) | Percentage inhibition of ligand binding, Adrenergic α1B (0.3 μM) ([2]; 0.3 μM compound) | Percentage inhibition of ligand binding, Adrenergic α2A (0.3 μM) ([3]; 0.3 μM compound) | inhibition at 0.01 µM ([1]; 10 nM compound, read-out: Percentage inhibition of ligand binding, Adrenergic α2B (10 nM)) | inhibition at 0.03 µM ([1]; 30 nM compound, read-out: Percentage inhibition of ligand binding, Adrenergic α2B (30 nM)) | inhibition at 0.1 µM ([1]; 0.1 μM compound, read-out: Percentage inhibition of ligand binding, Adrenergic α2B (0.1 μM)) | inhibition at 0.1 µM ([2]; 0.1 μM compound, read-out: Percentage inhibition of ligand binding, Adrenergic α1B (0.1 μM)) | inhibition at 0.3 µM ([2]; 0.3 μM compound, read-out: Percentage inhibition of ligand binding, Adrenergic α1B (0.3 μM)) | inhibition at 0.1 µM ([3]; 0.1 μM compound, read-out: Percentage inhibition of ligand binding, Adrenergic α2A (0.1 μM)) | inhibition at 0.3 µM ([3]; 0.3 μM compound, read-out: Percentage inhibition of ligand binding, Adrenergic α2A (0.3 μM)) |
| --- | --- | --- | --- | --- | --- | --- | --- | --- | --- | --- | --- | --- | --- | --- |
| Cc1ccc2c(c1)c1c(n2CC(OCC2CCC2)c2ccncc2)CCN2CCCC12 (single isomer, unassigned) [138d] | 11% | 0% | 4% | – | – | – | – | – | – | – | – | – | – | – |
| Cc1ccc2c(c1)c1c(n2CC(C)(O)c2cccnc2)CC2CCCN2C1 (stereo not drawn) [41d] | 21% | −2% | −7% | 9% | 48% | −1% | 13% | – | – | – | – | – | – | – |
| Cc1cc(F)c2c(c1)c1c(n2CC(C)(O)c2cccnc2)CC2CCCN2C1 (single isomer, unassigned) [61d] | 11% | 0% | −10% | 0% | 23% | 1% | −4% | – | – | – | – | – | – | – |
| Cc1cc(F)c2c(c1)c1c(n2CC(O)c2ccncc2)CCN2CCCC12 (single isomer, unassigned) [137d] | 24% | 19% | 15% | 21% | – | 18% | 16% | – | – | – | – | – | – | – |
| Cc1ccc2c(c1)c1c(n2CC(O)c2ccncc2F)CCN2CCCC12 (stereo not drawn) [compound 14, 1-(3-fluoropyridin-4-yl)-2-(10-methyl-2,3,5,6-tetrahydro-1H-indolizino[7,8-b]indol-7 (11cH)-yl)ethanol] | – | – | – | – | – | – | – | 81% | 99% | 101% | 74% | 90% | 71% | 87% |
| Cc1ccc2c(c1)c1c(n2CC(C)(O)c2ccc(F)cc2)CN2CCC1C2 (single isomer, unassigned) [134d] | 22% | 28% | 15% | – | – | – | – | – | – | – | – | – | – | – |
